Experimental data as given in patent US20250360145A1, “CSF-1R INHIBITORS AND USES THEREOF” (Myrobalan Therapeutics, Inc., priority 2022, published 2025).
Read-outs that look alike come from different tables or passages of the source.

Columns and labels:
[1] = test system: Ba/F3_CSF-1R (stably expressing human CSF-1R kinase); assay: Cell proliferation assay, Ba/F3_CSF-1R; format: cell-based; conditions: BaF3, 72 h, Ba/F3_CSF-1R cells, 72 hours treatment; read-out: CSF-1R BaF3 EC50
PDGFRβ = PDGFRβ (Homo sapiens (Human), UniProt P09619); assay: Biochemical HTRF kinase assay, PDGFRβ; conditions: for IC50: recombinant human protein, read-out: PDGFR-1β IC50; for PDGFR-1β Fold: selectivity: IC50 of PDGFR-1β as multiple of IC50 of CSF-1R;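 on all read-outs here: kinase reaction with substrate/ATP mix run 1 h at room temperature in 384-well format, HTRF signal detection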
FLT3 = FLT3 (Homo sapiens (Human), UniProt P36888); assay: Biochemical HTRF kinase assay, FLT3; conditions: for IC50: recombinant human protein; for FLT3 Fold: selectivity: IC50 of FLT3 as multiple of IC50 of CSF-1R
EOC2 cell = assay: Cell proliferation assay, EOC2; format: cell-based, mouse; conditions: Mus musculus, 72 h, EOC2 cells, 72 hours treatment; read-out: ECO2 EC50
CSF-1R = CSF-1R (Homo sapiens (Human), UniProt P07333); assay: Biochemical HTRF kinase assay, CSF-1R; conditions: recombinant human CSF-1R;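 further: enzyme incubated with inhibitor plus a substrate and ATP mix for one hour at room temperature before HTRF detection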
c-Kit = c-Kit (Homo sapiens (Human), UniProt P10721); assay: Biochemical HTRF kinase assay, c-Kit; conditions: for IC50: recombinant human protein, read-out: cKit IC50; for cKit Fold: selectivity: IC50 of cKit as multiple of IC50 of CSF-1R;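 on all read-outs here: enzyme reaction with substrate and ATP run in 384-well plates for 1 hour at room temperature, kinase activity detected by HTRF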
[2] = In vivo PK study (plasma and brain exposure); set-up: species or system CD1 mouse; conditions: male; for half-life: CD1, mouse
Description: The PK profiles were determined in CD1 mouse, and all the procedures and protocols were in accordance with the National Institutes of Health Guide for the Care and Use of Laboratory Animals. The CD1 mouse were purchased from JH Laboratory Animal Co. LTD. The CD1 mouse (23-30 g, 6-8 weeks, male) were randomized and divided into five groups consisting of 21 mouse per group. The test compounds that have been formulated were subjected to PK studies. The test compounds were administrated via p.o. at 45 mg/kg and i.v. at 2 mg/kg. […] The blood samples were placed on wet ice, and serum was collected after centrifugation. Serum samples were frozen and stored at −70° C. The brain samples were dried on filtrate paper, and snap frozen on dry ice and further stored at −70° C. Then, the blood samples and brain samples were further analyzed by LC-MS/MS (Triple Quad 6500+).

[3] = Brain protein binding study; format: in vitro ADME; conditions: mouse brain homogenate, equilibrium dialysis 4 hours
Description: On the day of experiment, brain homogenate was thawed in water bath at room temperature and then incubated at 37° C. for 10 min before use. Pretreat the dialysis membrane according to the manufacturer's instructions: the dialysis membrane strips were soaked in ultra pure water at room temperature for approximately 1 hr. After that, each membrane strip that contains 2 membranes was separated and soaked in ethanol:water (20:80 v:v) for approximately 20 min, after which it was ready for use or was stored in the solution at 2-8° C. for up to 1 month. Prior to the experiment, the membrane was rinsed and soaked for 20 min in ultra pure water for use. Then working solutions (400 μM) of test compound and control compound were prepared. Aliquots of working solutions (3 μL) were spiked into blank matrix (597 μL) to achieve final concentrations and mixed thoroughly. Aliquots of 50 μL loading matrix containing test compound or control compound in triplicate was transferred to Sample Collection Plate, respectively. The samples were matched with opposite blank buffer to obtain a final volume of 100 μL with a volume ratio of matrix:Dialysis Buffer (1:1, v:v) in each well immediately. The stop solution was added to these T0 samples of test compound and control compound. The plate was sealed and shaked at 800 rpm for 10 min. Then these T0 samples were stored at 2-8° C. pending further process along with other post-dialysis samples. The dialysis instrument was assembled following manufacture's instructions. An aliquot of 100 μL of the loading matrix containing test compound or control compound was transferred to the donor side of each dialysis well in triplicate and 100 μL of the Dialysis Buffer was loaded to the receiver side of the well. Then the plate was rotated at approximately 100 rpm in a humidified incubator with 5% CO2 at 37±1° C. for 4 hours. At the end of the dialysis, aliquots of 50 μL samples from the buffer side and matrix side of the dialysis device were taken into new 96-well plates (Sample Collection Plates). An equal volume of opposite blank matrix (buffer or matrix) in each sample was added to reach a final volume of 100 μL with volume ratio of matrix:Dialysis Buffer at 1:1 (v:v) in each well. All samples were further processed by protein precipitation for LC/MS/MS analysis.

[4] = Plasma protein binding study; format: in vitro ADME; conditions: mouse plasma, equilibrium dialysis 4 hours; read-out: PPB-mouse (Bound) (%) (converted)
Description: On the day of experiment, the plasma was thawed under running cold tap water and centrifuged at 3220×g for 5 min to remove any clots. The pH value was checked and recorded. Only plasma within range of pH 7.0 to pH 8.0 was used. Pretreat the dialysis membrane according to the manufacturer's instructions: the dialysis membrane strips were soaked in ultra pure water at room temperature for approximately 1 hr. After that, each membrane strip that contains 2 membranes was separated and soaked in ethanol:water (20:80 v:v) for approximately 20 min, after which it was ready for use or was stored in the solution at 2-8° C. for up to 1 month. Prior to the experiment, the membrane was rinsed and soaked for 20 min in ultra pure water for use. Working solutions (400 μM) of test compound and control compound were prepared. Aliquots of working solutions (3 μL) were spiked into blank matrix (597 μL) to achieve final concentrations and mixed thoroughly. Aliquots of 50 μL loading matrix containing test compound or control compound in triplicate was transferred to Sample Collection Plate, respectively. The samples were matched with opposite blank buffer to obtain a final volume of 100 μL with a volume ratio of matrix:Dialysis Buffer (1:1, v:v) in each well immediately. The stop solution was added to these T0 samples of test compound and control compound. The plate was sealed and shaked at 800 rpm for 10 min. Then these T0 samples were stored at 2-8° C. pending further process along with other post-dialysis samples. The dialysis instrument was assembled following manufacture's instructions. An aliquot of 100 μL of the loading matrix containing test compound or control compound was transferred to the donor side of each dialysis well in triplicate and 100 μL of the Dialysis Buffer was loaded to the receiver side of the well. Then the plate was rotated at approximately 100 rpm in a humidified incubator with 5% CO2 at 37±1° C. for 4 hours. At the end of the dialysis, aliquots of 50 μL samples from the buffer side and matrix side of the dialysis device were taken into new 96-well plates (Sample Collection Plates). An equal volume of opposite blank matrix (buffer or matrix) in each sample was added to reach a final volume of 100 μL with volume ratio of matrix:Dialysis Buffer at 1:1 (v:v) in each well. All samples were further processed by protein precipitation for LC/MS/MS analysis.

Sequence of CSF-1R (P07333 20-972): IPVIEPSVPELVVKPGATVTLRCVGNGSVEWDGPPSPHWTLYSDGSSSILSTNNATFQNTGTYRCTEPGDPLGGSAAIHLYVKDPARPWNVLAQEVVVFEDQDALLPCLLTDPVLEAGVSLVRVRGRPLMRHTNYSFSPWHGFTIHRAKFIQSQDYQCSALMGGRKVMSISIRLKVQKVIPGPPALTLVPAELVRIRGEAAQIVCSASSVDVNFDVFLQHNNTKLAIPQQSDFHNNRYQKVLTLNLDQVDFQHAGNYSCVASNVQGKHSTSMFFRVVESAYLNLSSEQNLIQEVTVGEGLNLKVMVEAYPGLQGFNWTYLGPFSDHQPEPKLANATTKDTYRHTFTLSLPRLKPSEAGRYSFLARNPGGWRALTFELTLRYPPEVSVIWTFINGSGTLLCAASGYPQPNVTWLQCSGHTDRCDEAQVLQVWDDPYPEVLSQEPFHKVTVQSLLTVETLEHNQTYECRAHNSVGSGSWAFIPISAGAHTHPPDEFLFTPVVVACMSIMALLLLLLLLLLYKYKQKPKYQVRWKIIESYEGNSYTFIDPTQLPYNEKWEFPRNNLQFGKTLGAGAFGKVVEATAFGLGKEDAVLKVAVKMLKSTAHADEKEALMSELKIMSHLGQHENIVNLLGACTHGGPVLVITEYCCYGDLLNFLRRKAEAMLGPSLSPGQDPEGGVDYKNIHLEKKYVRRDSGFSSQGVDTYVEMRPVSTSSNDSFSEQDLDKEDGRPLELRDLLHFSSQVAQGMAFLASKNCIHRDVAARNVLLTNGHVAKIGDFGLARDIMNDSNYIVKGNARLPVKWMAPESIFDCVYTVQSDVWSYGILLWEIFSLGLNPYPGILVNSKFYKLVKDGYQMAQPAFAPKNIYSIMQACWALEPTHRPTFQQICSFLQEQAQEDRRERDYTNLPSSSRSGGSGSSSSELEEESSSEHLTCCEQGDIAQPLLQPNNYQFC
Sequence of c-Kit (P10721 26-976): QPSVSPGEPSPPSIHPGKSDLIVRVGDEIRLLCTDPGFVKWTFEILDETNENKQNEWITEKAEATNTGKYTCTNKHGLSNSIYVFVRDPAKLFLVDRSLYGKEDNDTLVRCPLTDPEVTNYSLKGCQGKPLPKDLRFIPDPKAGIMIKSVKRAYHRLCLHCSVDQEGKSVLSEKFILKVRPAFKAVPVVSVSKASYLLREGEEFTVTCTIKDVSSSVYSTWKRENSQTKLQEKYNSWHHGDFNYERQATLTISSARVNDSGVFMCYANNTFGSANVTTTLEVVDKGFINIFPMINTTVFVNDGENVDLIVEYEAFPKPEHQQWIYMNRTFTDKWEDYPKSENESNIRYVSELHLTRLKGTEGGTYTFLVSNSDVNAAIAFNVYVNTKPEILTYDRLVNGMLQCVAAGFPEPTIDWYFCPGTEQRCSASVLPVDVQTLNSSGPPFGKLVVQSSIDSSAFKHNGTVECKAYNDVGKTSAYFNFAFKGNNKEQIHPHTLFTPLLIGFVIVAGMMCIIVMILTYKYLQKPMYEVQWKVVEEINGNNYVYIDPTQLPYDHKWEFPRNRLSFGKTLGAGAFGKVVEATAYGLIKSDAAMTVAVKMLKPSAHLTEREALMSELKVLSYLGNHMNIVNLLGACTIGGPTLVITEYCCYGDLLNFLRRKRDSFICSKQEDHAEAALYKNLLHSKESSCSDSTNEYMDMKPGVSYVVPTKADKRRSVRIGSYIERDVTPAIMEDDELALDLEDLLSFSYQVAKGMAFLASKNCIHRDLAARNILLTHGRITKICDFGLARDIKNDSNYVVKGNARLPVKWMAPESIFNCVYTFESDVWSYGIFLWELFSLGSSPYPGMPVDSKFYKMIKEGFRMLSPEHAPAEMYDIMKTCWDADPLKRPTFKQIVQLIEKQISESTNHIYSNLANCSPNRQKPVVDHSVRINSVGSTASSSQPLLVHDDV
Sequence of PDGFRβ (P09619 33-1106): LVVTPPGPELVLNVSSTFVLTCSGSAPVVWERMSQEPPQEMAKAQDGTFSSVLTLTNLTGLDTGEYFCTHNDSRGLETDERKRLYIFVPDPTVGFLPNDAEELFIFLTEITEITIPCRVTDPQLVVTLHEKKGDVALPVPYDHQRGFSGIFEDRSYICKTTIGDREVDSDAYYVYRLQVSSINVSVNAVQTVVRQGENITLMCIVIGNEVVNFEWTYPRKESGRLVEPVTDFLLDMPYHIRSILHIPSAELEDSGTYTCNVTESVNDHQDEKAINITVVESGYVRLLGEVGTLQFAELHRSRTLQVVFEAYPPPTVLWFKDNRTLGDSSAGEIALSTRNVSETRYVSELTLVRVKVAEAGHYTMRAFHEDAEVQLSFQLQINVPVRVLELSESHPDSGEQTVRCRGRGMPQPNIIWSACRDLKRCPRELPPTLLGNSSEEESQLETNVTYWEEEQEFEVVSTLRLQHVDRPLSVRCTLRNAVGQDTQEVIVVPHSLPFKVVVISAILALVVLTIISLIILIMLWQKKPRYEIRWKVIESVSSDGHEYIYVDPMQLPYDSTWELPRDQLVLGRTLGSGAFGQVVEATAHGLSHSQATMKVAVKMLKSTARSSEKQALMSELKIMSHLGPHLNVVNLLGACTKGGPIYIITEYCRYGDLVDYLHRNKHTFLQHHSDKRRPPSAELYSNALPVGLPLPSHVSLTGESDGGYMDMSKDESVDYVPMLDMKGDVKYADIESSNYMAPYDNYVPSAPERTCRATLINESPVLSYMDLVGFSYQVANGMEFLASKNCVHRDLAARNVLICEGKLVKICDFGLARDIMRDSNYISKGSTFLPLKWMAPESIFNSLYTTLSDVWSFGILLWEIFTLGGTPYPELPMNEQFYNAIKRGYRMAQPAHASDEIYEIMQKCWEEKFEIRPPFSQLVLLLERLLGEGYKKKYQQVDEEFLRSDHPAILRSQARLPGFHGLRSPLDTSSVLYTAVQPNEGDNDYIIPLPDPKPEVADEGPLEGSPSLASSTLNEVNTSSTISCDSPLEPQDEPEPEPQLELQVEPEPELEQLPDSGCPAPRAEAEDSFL
Sequence of FLT3 (P36888 27-993): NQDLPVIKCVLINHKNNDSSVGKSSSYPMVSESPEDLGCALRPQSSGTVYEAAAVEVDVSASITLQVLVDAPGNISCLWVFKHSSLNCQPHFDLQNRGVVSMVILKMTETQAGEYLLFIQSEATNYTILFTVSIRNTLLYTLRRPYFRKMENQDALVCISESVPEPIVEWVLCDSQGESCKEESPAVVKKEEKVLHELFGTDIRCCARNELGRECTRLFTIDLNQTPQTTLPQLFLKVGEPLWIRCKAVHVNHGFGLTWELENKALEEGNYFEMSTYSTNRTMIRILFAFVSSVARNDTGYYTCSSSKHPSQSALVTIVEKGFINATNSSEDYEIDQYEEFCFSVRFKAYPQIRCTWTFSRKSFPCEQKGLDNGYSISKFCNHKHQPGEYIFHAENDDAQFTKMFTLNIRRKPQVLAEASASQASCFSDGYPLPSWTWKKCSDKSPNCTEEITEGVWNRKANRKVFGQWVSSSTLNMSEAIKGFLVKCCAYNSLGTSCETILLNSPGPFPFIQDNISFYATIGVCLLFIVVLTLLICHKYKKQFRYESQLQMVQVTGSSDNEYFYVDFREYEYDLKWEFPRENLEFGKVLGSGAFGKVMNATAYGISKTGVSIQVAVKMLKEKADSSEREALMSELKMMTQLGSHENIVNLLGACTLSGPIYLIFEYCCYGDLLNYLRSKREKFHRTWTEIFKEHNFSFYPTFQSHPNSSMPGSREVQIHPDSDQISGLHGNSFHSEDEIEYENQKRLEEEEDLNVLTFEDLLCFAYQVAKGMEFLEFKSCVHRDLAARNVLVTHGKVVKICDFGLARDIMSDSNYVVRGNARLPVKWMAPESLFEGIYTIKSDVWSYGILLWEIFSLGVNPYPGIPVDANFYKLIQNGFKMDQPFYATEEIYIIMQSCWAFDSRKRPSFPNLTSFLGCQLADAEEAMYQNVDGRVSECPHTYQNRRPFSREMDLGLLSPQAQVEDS

Row | Structure (SMILES) | EC50 [1] [µM] | IC50 (PDGFRβ) [µM] | PDGFR-1β Fold (PDGFRβ) [fold] | IC50 (FLT3) [µM] | FLT3 Fold (FLT3) [fold] | EC50 (EOC2 cell) [µM] | IC50 (CSF-1R; Table 2) [µM] | IC50 (CSF-1R; Table 3) [µM] | IC50 (c-Kit) [µM] | cKit Fold (c-Kit) [fold] | also measured
1 | [2H]C([2H])([2H])Oc1cnc2c(Cc3cnc(OCc4ccc(OC)cn4)c(OC)c3)ccnc2c1 [Example 79] | 0.118 | 0.684 | >100 | > 1 | >100 | 0.0604 | 0.0036 | 0.0036 | > 1 | >100 | 
2 | COc1cnc2c(Cc3cnc(OCc4cc(C)n(C)n4)c(OC)c3)ccnc2c1 [Example 82] | 0.161 | > 1 | >100 | > 1 | >100 | 0.116 | 0.0046 | 0.0046 | > 1 | >100 | 
3 | COc1cnc2c(Cc3cnc(OCc4cc(C(C)C)no4)c(OC)c3)ccnc2c1 [Example 83] | 0.0267 | 0.158 | >100 | > 1 | >100 | 0.037 | 0.0012 | 0.0012 | > 1 | >100 | 
4 | COc1cnc2c(Cc3cnc(OCc4cnc5c(c4)OCCN5C)c(OC)c3)ccnc2c1 [Example 87] | 0.0863 | 0.208 | >100 | > 1 | >100 | 0.092 | 0.00083 | 0.00083 | > 1 | >100 | 
5 | COc1cnc2c(Cc3cnc(OCc4cc(C)n(C5COC5)n4)c(OC)c3)ccnc2c1 [Example 88] | 0.0767 | > 1 | >100 | > 1 | >100 | 0.116 | 0.0049 | 0.0049 | > 1 | >100 | 
6 | COc1cnc2c(Cc3cnc(OCc4cc(C(C)C)n(C)n4)c(OC)c3)ccnc2c1 [Example 93] | 0.0729 | > 1 | >100 | > 1 | >100 | 0.0183 | 0.0021 | 0.0021 | > 1 | >100 | 
7 | COc1ccc(COc2ncc(Cc3ccnc4cc(N(C)C)cnc34)cc2OC)nc1 [Example 100, 8-((5-methoxy-6-((5-methoxypyridin-2-yl)methoxy)pyridin-3-yl)methyl)-N,N-dimethyl-1,5-naphthyridin-3-amine] | 0.0171 | 0.378 | >100 | > 1 | >100 | 0.01 | 0.0022 | 0.0022 | 0.875 | >100 | 
8 | COc1cnc2c(Cc3cnc(OCc4cc5n(n4)CC4CC54)c(OC)c3)ccnc2c1 (centres unmarked) [Example 101] | 0.0777 | 0.839 | >100 | > 1 | >100 | 0.0483 | 0.0019 | 0.0019 | 0.715 | >100 | 
9 | COc1cnc2c(Cc3cnc(OCc4cc5n(n4)C[C@H](F)C5)c(OC)c3)ccnc2c1 [Example 112] | 0.168 | 0.874 | >100 | > 1 | >100 | 0.102 | 0.0047 | 0.0047 | > 1 | >100 | 
10 | COc1cnc2c(Cc3cnc(OCc4cc5n(n4)C[C@@H](OC)C5)c(OC)c3)ccnc2c1 [Example 121] | 0.0411 | > 1 | >50 | > 1 | >50 | 0.0152 | 0.0199 | 0.0199 | > 1 | >50 | 
11 | COc1ncc(F)cc1CNc1ccc(Cc2c[nH]c3ncc(C)cc23)c(F)n1 [PLX5622, reference compound] |  |  |  |  |  |  |  |  |  |  | Kp uu ([2]; CD1, brain, po, mouse, p.o. 45 mg/kg, BBB penetration): 0.003; half-life ([2]; serum, iv, 2 mg/kg, CD1 mouse, i.v. 2 mg/kg, read-out: IV-2mpk T1/2 (converted)): 3.69 h; half-life ([2]; serum, po, 45 mg/kg, CD1 mouse, p.o. 45 mg/kg, read-out: PO-45mpk T1/2 (converted)): 2.43 h; AUC(0-t) ([2]; CD1, po, mouse, p.o. 45 mg/kg, brain, read-out: PO-45mpk AUClast-brain): 37.6 µg·h/mL; AUC(0-t) ([2]; CD1, po, mouse, p.o. 45 mg/kg, plasma, Tables 7 and 8, read-out: PO-45mpk AUClast-plasma): 163 µg·h/mL; AUC(0-inf) ([2]; serum, iv, CD1 mouse, i.v. 2 mg/kg, read-out: IV-2mpk AUCInf): 6.13 µg·h/mL; AUC(0-t) ([2]; serum, iv, CD1 mouse, i.v. 2 mg/kg, read-out: IV-2mpk AUClast): 6.1 µg·h/mL; clearance ([2]; serum, iv, CD1 mouse, i.v. 2 mg/kg, read-out: IV-2mpk CL (converted)): 0.326 L/h/kg; Vd ([2]; serum, iv, CD1 mouse, i.v. 2 mg/kg, read-out: IV-2mpk VSS): 0.98 L/kg; bioavailability ([2]; serum, oral, CD1 mouse, p.o. 45 mg/kg vs i.v. 2 mg/kg): 118%; AUC(0-t) ([2]; serum, po, CD1 mouse, p.o. 45 mg/kg, Tables 5 and 6, read-out: PO-45mpk AUClast): 163 µg·h/mL; AUC(0-inf) ([2]; serum, po, CD1 mouse, p.o. 45 mg/kg, read-out: PO-45mpk AUCInf): 163 µg·h/mL; Cmax ([2]; serum, po, CD1 mouse, p.o. 45 mg/kg, read-out: PO-45mpk Cmax): 24.9 µg/mL; Tmax ([2]; serum, po, CD1 mouse, p.o. 45 mg/kg, read-out: PO-45mpk Tmax): 1 h; BPB-mouse (Bound) (%) [3]: 99.97%; fraction unbound at 4 h, 2 µM [4]: 0.023
